From US9730444B2, “Herbicidal compositions comprising isoxaben and aminopyralid” (Dow AgroSciences LLC, priority 2013, dated 2017)

Key:
[1] = system: GERDI = Geranium dissectum (cutleaf geranium); test: Small plot field trial in winter wheat, foliar-applied, visual % control of GERDI; format: in vivo; conditions: Trial 1, observed mean, 200 L/ha water, winter wheat crop stage 12-13, rates: isoxaben 40 g ai/ha, aminopyralid 5 g ae/ha, flufenacet 200 g ai/ha, diflufenican 100 g ai/ha
Text: (§1) Results in Table 1 are for foliar-applied compositions in small plot research experiments to evaluate the efficacy of the compositions in winter wheat. Application water volume was 200 liters per hectare (L/ha). Crop stage at time of application was 12-13. The values reported are means. […] Colby's equation was used to determine the herbicidal effects expected from the mixtures (Colby, S. R. Calculation of the synergistic and antagonistic response of herbicide combinations. Weeds 1967, 15, 20-22.).
(§2) More specifically, the following equation is used to calculate the expected activity of mixtures containing two herbicical active ingredients: Expected=A+B−(A×B/100) • A=observed efficacy of a first active ingredient at the same concentration as used in the mixture; • B=observed efficacy of the second active ingredient (or product, which may contain a combination of active ingredients) at the same concentration as used in the mixture. For mixtures containing three herbicidal active ingredients, the following equation was used to calculate the expected activity:
(§3) [formula] • A=observed efficacy of a first active ingredient at the same concentration as used in the mixture; • B=observed efficacy of a second active ingredient B at the same concentration as used in the mixture; • C=observed efficacy of a third active ingredient C at the same concentration as used in the mixture. The following abbreviations are used in Table 1: • GERDI=Geranium dissectum (cutleaf geranium) • STEME=Stellaria media (L.) Vill. (common chickweed) • g ai/ha=grams active ingredient per hectare • g ae/ha=grams acid equivalent per hectare • Ob=observed value of percent (%) control rated visually • Ex=expected value of percent (%) control as calculated by Colby's equation

[2] = system: STEME = Stellaria media (L.) Vill. (common chickweed); test: Small plot field trial in winter wheat, foliar-applied, visual % control of STEME; format: in vivo; conditions: Trial 1, observed mean, 200 L/ha water, winter wheat crop stage 12-13, rates: isoxaben 40 g ai/ha, aminopyralid 5 g ae/ha, flufenacet 200 g ai/ha, diflufenican 100 g ai/ha
Text: as §1, §2, §3

Structure (SMILES)	VISUAL % CONTROL OF GERDI 28 DAT Ob [1]	VISUAL % CONTROL OF STEME 28 DAT Ob [2]
CCC(C)(CC)c1cc(NC(=O)c2c(OC)cccc2OC)on1 [isoxaben, N-[3-(1-ethyl-1-methylpropyl)isoxazol-5-yl]-2,6-dimethoxybenzamide]	0 d %	0 e %
Nc1cc(Cl)nc(C(=O)O)c1Cl [aminopyralid, 4-amino-3,6-dichloropyridine-2-carboxylic acid]	0 d %	0 e %
CC(C)N(C(=O)COc1nnc(C(F)(F)F)s1)c1ccc(F)cc1 [flufenacet, N-(4-fluorophenyl)-N-(1-methylethyl)-2-[[5-(trifluoromethyl)-1,3,4-thiadiazol-2-yl]oxy]acetamide]	0 d %	0 e %
